Experiments:
human M2 receptor [1] = biological target: T1, human M2 receptor (Homo sapiens, UniProt P08172); conditions: Receptor activity EC50, M2-GIRK1/4 activation test, acetylcholine at EC20; allosteric potency; in some cases mean values from two or more determinations
T1 sequence (P08172 1-466): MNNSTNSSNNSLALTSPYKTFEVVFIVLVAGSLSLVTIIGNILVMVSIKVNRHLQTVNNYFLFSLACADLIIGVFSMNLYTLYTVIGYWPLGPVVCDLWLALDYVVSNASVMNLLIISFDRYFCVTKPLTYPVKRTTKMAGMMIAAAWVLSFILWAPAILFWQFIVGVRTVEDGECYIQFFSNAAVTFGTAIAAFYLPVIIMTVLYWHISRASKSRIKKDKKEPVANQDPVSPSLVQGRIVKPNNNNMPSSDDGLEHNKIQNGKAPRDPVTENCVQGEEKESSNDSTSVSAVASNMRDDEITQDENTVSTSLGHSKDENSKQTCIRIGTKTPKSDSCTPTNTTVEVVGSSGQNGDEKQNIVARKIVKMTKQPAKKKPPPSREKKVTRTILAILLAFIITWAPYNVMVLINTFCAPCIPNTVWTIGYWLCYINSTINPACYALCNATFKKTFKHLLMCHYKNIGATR

human M2 receptor [2] = biological target: T1, human M2 receptor; format: cell-based; conditions: shift in the acetylcholine dose-response curve (Allosteric EC50 shift, GraphPad PRISM); α >1 = positive cooperativity
Description: B-1.2. Determination of Positive Cooperativity (α Factor)
In contrast to the EC50 determination of the test substances (see B-1.1), however, this is not done using one acetylcholine concentration; instead, every concentration of the test substance is combined with an acetylcholine 8-point dose-response curve. […] The shift in the acetylcholine dose-response curve in the presence of increasing concentrations of the test substance is analysed and quantified by means of GraphPad PRISM (Allosteric EC50 shift). […] Positive cooperativity is the hallmark of a positive allosteric modulator. […] The greater the magnitude of the α value, the greater the extent of cooperativity between orthosteric and allosteric.

Row | Compound | EC50 (human M2 receptor [1]) | Cooperativity (alpha factor) (human M2 receptor [2])
1 | CC[C@@H](NC(=O)c1cn(-c2ccc(F)cc2F)c2nc(N3CC4CNC(=O)C4C3)ccc2c1=O)C(F)(F)F (mixture of isomers) [Example 221, 1-(2,4-Difluorophenyl)-4-oxo-7-[4-oxohexahydrpyrrolo[3,4-c]pyrrol-2(1H)-yl]-N-[(2R)-1,1,1-trifluorobutan-2-yl]-1,4-dihydro-1,8-naphthyridine-3-carboxamide] | 106 nM | 24
2 | CC[C@@H](NC(=O)c1cn(-c2ccc(F)cc2F)c2nc(N3CCC(O)C3=O)ccc2c1=O)C(F)(F)F (mixture of isomers) [Example 224, 1-(2,4-Difluorophenyl)-7-[3-hydroxy-2-oxopyrrolidin-1-yl]-4-oxo-N-[(2R)-1,1,1-trifluorobutan-2-yl]-1,4-dihydro-1,8-naphthyridine-3-carboxamide] | 157 nM | 31
3 | CC(COC(F)(F)F)NC(=O)c1cn(-c2ccc(F)cc2F)c2nc(N3CC[C@H](F)C3)ccc2c1=O (mixture of isomers) [Example 227, 1-(2,4-Difluorophenyl)-7-[(3S)-3-fluoropyrrolidin-1-yl]-4-oxo-N-[1-(trifluoromethoxy)propan-2-yl]-1,4-dihydro-1,8-naphthyridine-3-carboxamide] | 73 nM | 14
4 | CC(COC(F)(F)F)NC(=O)c1cn(-c2ccc(F)cc2F)c2nc(N(C)C)ccc2c1=O (racemic) [Example 231, 1-(2,4-Difluorophenyl)-7-(dimethylamino)-4-oxo-N-[1-(trifluoromethoxy)propan-2-yl]-1,4-dihydro-1,8-naphthyridine-3-carboxamide] | 120 nM | 12

Results, then the compound that gave them:

Row | EC50 (human M2 receptor [1]) | Cooperativity (alpha factor) (human M2 receptor [2]) | Compound
5 | 97 nM | 8 | CC(COC(F)(F)F)NC(=O)c1cn(-c2ccc(F)cc2F)c2nc(N3CCCC3)ccc2c1=O (racemic) [Example 232, 1-(2,4-Difluorophenyl)-4-oxo-7-(pyrrolidin-1-yl)-N-[1-(trifluoromethoxy)propan-2-yl]-1,4-dihydro-1,8-naphthyridine-3-carboxamide]
6 | 57 nM | 41 | O=C(NC(COC(F)(F)F)c1ccccc1)c1cn(-c2ccc(F)cc2F)c2nc(N3C[C@@H](O)CC3=O)ccc2c1=O (mixture of isomers) [Example 233, 1-(2,4-Difluorophenyl)-7-[(4S)-4-hydroxy-2-oxopyrrolidin-1-yl]-4-oxo-N-[1-phenyl-2-(trifluoromethoxy)ethyl]-1,4-dihydro-1,8-naphthyridine-3-carboxamide]
7 | 21 nM | 18 | O=C(NC(c1c(F)cccc1F)C(F)(F)F)c1cn(-c2ccc(F)cc2F)c2nc(N3CC[C@H](F)C3)ccc2c1=O (mixture of isomers) [Example 241, 1-(2,4-Difluorophenyl)-N-[1-(2,6-difluorophenyl)-2,2,2-trifluoroethyl]-7-[(3S)-3-fluoropyrrolidin-1-yl]-4-oxo-1,4-dihydro-1,8-naphthyridine-3-carboxamide]
8 | 22 nM | 58 | O=C(NC(c1c(F)cccc1F)C(F)(F)F)c1cn(-c2ccc(F)cc2F)c2nc(N3C[C@@H](O)CC3=O)ccc2c1=O (mixture of isomers) [Example 244, 1-(2,4-Difluorophenyl)-N-[1-(2,6-difluorophenyl)-2,2,2-trifluoroethyl]-7-[(4S)-4-hydroxy-2-oxopyrrolidin-1-yl]-4-oxo-1,4-dihydro-1,8-naphthyridine-3-carboxamide]
9 | 24 nM | 28 | CC[C@@H](NC(=O)c1cn(-c2ccc(F)cc2F)c2nc(N3CC4CC4(O)C3)ccc2c1=O)C(F)(F)F (mixture of isomers) [Example 267, 1-(2,4-Difluorophenyl)-7-[1-hydroxy-3-azabicyclo[3.1.0]hex-3-yl]-4-oxo-N-[(2R)-1,1,1-trifluorobutan-2-yl]-1,4-dihydro-1,8-naphthyridine-3-carboxamide]
